Where a name gives a salt, the structure may show the parent alone. Read-outs that look alike come from different tables or passages of the source. Each block holds one compound with its values, some of them ahead of it.
Assays:
Amphetamine Stereotypy = assay: Antagonism of Amphetamine Stereotypy in Rats (ED50 for blocking characteristic amphetamine cage movement); format: in vivo; settings: for ED50: Rattus norvegicus; for ED50, 24 Hrs.: 1440 min; for ED50, 48 Hrs.: 2880 min; for ED50, 72 Hrs.: 4320 min
Protocol: The effects of the compounds of the present invention on prominent amphetamine-induced symptoms were studied in rats by a rating scale modeled after the one reported by Quinton and Halliwell, and Weissman. Groups of five rats were placed in a covered plastic cage measuring approximately 26 cm.×42 cm.×16 cm. […] They were then treated 1, 5 and 24 hrs. later with d-amphetamine sulfate, 5 mg./kg. intraperitoneally (i.p.). […] On the basis of dose-response data after amphetamine it was possible to determine the effective dose of the compound necessary to antagonize or block the characteristic amphetamine behavior of cage movement for fifty percent of the rats tested (ED50). The time of rating chosen coincides with the peak action of amphetamine which is 60-80 min. after treatment with this agent.
Employing the above-described procedure, the following 4a,9b-trans compounds were tested for their ability to block the behavior effects of amphetamine, the results being reported as the ED50 in mg./kg. at the indicated times: [drawing 30]
A. The following results were obtained on the mixture of diastereomers for those compounds wherein R contains a secondary alcohol group and on the single diastereomer of the other 4a, 9b-trans hexahydro-pyrido-indoles.
B. The results of tests in which compounds of the invention reported in Part A, above are compared with the corresponding δ-substituted-5-aryl-1,2,3,4-tetrahydropyrido[4,3-b]indoles of U.S. Pat. No. 4,001,263 are summarized below. For each pair the results obtained on the prior art compound (a) are given first and the results for the compound of the invention (b) are given second. Where indicated the test compound was also administered orally (p.o.) and tests were carried out for 48 hours.
C. […] In each case the compounds are of the formula
The tests were carried out for 72 hours.

dopamine receptors = dopamine receptors (Rattus norvegicus, UniProt P61169); assay: Inhibition of 3H-Spiroperidol Binding to Dopamine Receptors (rat corpus striatum); design: species or system rats (Sprague-Dawley CD males); settings: 0.5 nM 3H-spiroperidol, 10 minutes at 37° C.
Chain of dopamine receptors (P61169 whole entry): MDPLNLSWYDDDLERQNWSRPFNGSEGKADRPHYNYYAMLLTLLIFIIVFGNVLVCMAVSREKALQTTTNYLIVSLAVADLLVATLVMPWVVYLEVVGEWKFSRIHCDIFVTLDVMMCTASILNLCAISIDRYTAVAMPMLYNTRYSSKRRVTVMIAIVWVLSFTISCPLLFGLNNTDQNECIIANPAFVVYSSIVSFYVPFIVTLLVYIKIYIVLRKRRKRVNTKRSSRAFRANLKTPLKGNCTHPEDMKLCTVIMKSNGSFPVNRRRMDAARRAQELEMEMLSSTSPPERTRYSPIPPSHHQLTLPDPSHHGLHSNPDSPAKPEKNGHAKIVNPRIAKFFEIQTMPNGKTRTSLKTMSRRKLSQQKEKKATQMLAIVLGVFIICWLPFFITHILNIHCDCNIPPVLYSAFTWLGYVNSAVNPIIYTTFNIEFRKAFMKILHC

[1] = ip, 1 h, i.p., Part B, read-out: ED50, 1 Hr.
[2] = ip, 5 h, i.p., Part B, read-out: ED50, 5 Hrs.
[3] = ip, 24 h, i.p., Part B, read-out: ED50, 24 Hrs.
[4] = po, 1 h, p.o., Part B, read-out: ED50, 1 Hr.
[5] = po, 5 h, p.o., Part B, read-out: ED50, 5 Hrs.
[6] = po, 24 h, p.o., Part B, read-out: ED50, 24 Hrs.
[7] = sc, 1 h, s.c., Part C, isomers of Examples 13 and 14, read-out: ED50, 1 Hr.
[8] = sc, 5 h, s.c., Part C, isomers of Examples 13 and 14, read-out: ED50, 5 Hrs.
[9] = sc, 24 h, s.c., Part C, isomers of Examples 13 and 14, read-out: ED50, 24 Hrs.
[10] = s.c., Part C, isomers of Examples 13 and 14, hydrochloride
[11] = s.c., Part D, enantiomers by synthesis of Example 21, hydrochloride

SMILES: OC(CCCN1CC[C@@H]2[C@@H](C1)c1cc(F)ccc1N2c1ccccc1F)c1ccc(F)cc1 (relative stereo) [trans-8-fluoro-5-(o-fluorophenyl)-2-[4-hydroxy-4-(p-fluorophenyl)butyl]-2,3,4,4a,5,9b-hexahydro-1H-pyrido[4,3-b]indole]
- ED50 (Amphetamine Stereotypy; [1]): 0.1 to 0.32 mg/kg
- ED50 (Amphetamine Stereotypy; [2]): ~0.1 mg/kg
- ED50 (Amphetamine Stereotypy; [3]): ~0.1 mg/kg
- ED50 (Amphetamine Stereotypy; [4]): < 1 mg/kg
- ED50 (Amphetamine Stereotypy; [5]): < 1 mg/kg
- ED50 (Amphetamine Stereotypy; [6]): < 1 mg/kg
- ED50 (Amphetamine Stereotypy; sc, 1 h, s.c., Part A, read-out: ED50, 1 Hr.): < 0.32 mg/kg
- ED50 (Amphetamine Stereotypy; sc, 5 h, s.c., Part A, read-out: ED50, 5 Hr.): < 0.32 mg/kg
- ED50 (Amphetamine Stereotypy; sc, 24 h, s.c., Part A, read-out: ED50, 24 Hrs.): < 0.32 mg/kg

- IC50 (dopamine receptors): 21 nM
SMILES: OC(CCCN1CC[C@H]2[C@H](C1)c1cc(F)ccc1N2c1ccc(F)cc1)c1ccc(F)cc1 (relative stereo) [αβγδ, dl-trans-8-Fluoro-5-(p-fluorophenyl)-2-[4-hydroxy-4-(p-fluorophenyl)butyl]-2,3,4,4a,5,9b-hexahydro-1H-pyrido[4,3-b]indole hydrochloride]
- ED50 (Amphetamine Stereotypy; [7]): 0.032 to 0.1 mg/kg
- ED50 (Amphetamine Stereotypy; [8]): 0.032 to 0.1 mg/kg
- ED50 (Amphetamine Stereotypy; [9]): 0.032 to 0.1 mg/kg

SMILES: Cl.OC(CCCN1CC[C@@H]2[C@@H](C1)c1cc(F)ccc1N2c1ccc(F)cc1)c1ccc(F)cc1 (single isomer, unassigned) [α, trans 8-fluoro-5-(p-fluorophenyl)-2-[4-hydroxy-4(p-fluorophenyl)butyl]-2,3,4,4a,5,9b-hexahydro-1H-pyrido[4,3-b]indole hydrochloride]
- ED50, 5 Hrs. (Amphetamine Stereotypy; 5 hrs, s.c., Part C, isomers of Examples 13 and 14, hydrochloride, 300 min): 32-100 micrograms/kilograms
- ED50, 24 Hrs. (Amphetamine Stereotypy; [10]): 32-100 micrograms/kilograms
- ED50, 48 Hrs. (Amphetamine Stereotypy; [11]): ca. 1 mg./kg.
- ED50, 72 Hrs. (Amphetamine Stereotypy; [11]): > 10 mg/kg

SMILES: Cl.OC(CCCN1CCC2C(C1)c1cc(F)ccc1N2c1ccc(F)cc1)c1ccc(F)cc1 (single isomer, unassigned) [β, 8-fluoro-5-(p-fluorophenyl)-2-[4-hydroxy-4-(p-fluorophenyl)butyl]-2,3,4,4a,5,9b-hexahydro-1H-pyrido[4,3-b]indole hydrochloride]
- ED50 (Amphetamine Stereotypy; [7]): > 1 mg/kg
- ED50 (Amphetamine Stereotypy; sc, 1 h, s.c., Part D, enantiomers by synthesis of Example 21, read-out: ED50, 1 Hr.): > 10 mg/kg
- ED50 (Amphetamine Stereotypy; [8]): > 1 mg/kg
- ED50 (Amphetamine Stereotypy; sc, 5 h, s.c., Part D, enantiomers by synthesis of Example 21, read-out: ED50, 5 Hrs.): 5.7 mg/kg
- ED50 (Amphetamine Stereotypy; [9]): > 1 mg/kg
- ED50 (Amphetamine Stereotypy; sc, 24 h, s.c., Part D, enantiomers by synthesis of Example 21, read-out: ED50, 24 Hrs.): > 10 mg/kg
- ED50 (Amphetamine Stereotypy; sc, 48 h, s.c., Part D, enantiomers by synthesis of Example 21, read-out: ED50, 48 Hrs.): > 10 mg/kg
- ED50 (Amphetamine Stereotypy; sc, 72 h, s.c., Part D, enantiomers by synthesis of Example 21, read-out: ED50, 72 Hrs.): > 10 mg/kg

- IC50 (dopamine receptors): 25 nM
SMILES: OC(CCCN1CC[C@@H]2[C@@H](C1)c1cc(F)ccc1N2c1ccc(F)cc1)c1ccc(F)cc1 (single isomer, unassigned) [γ, trans 8-fluoro-5-(p-fluorophenyl)-2-[4-hydroxy-4(p-fluorophenyl)butyl]-2,3,4,4a,5,9b-hexahydro-1H-pyrido[4,3-b]indole hydrochloride]
- ED50, 24 Hrs. (Amphetamine Stereotypy; [10]): 32-100 micrograms/kilograms
- ED50, 48 Hrs. (Amphetamine Stereotypy; [11]): ca. 1 mg./kg.
- ED50, 72 Hrs. (Amphetamine Stereotypy; [11]): > 1 mg/kg

SMILES: CN1CCN(CC/C=C2/c3ccccc3Sc3ccc(S(=O)(=O)N(C)C)cc32)CC1 [Navane, cis-9-[3-(4-Methyl-1-piperazinyl)propylidene]-2-(dimethylsulfonamido)thioanthene, reference compound]
- ED50 (Amphetamine Stereotypy; po, 1 h, po, Part A, read-out: ED50, 1 Hr.): 0.32 to 1 mg/kg
- ED50 (Amphetamine Stereotypy; po, 5 h, po, Part A, read-out: ED50, 5 Hr.): > 10 mg/kg
- ED50 (Amphetamine Stereotypy; po, 24 h, po, Part A, read-out: ED50, 24 Hrs.): > 32 mg/kg

SMILES: OC(CCCN1CCc2c(c3ccccc3n2-c2ccccc2)C1)c1ccccc1 (stereo not shown) [drawing 40 (a), reference compound]
- ED50 (Amphetamine Stereotypy; [1]): 3.2 to 10 mg/kg
- ED50 (Amphetamine Stereotypy; [2]): 3.2 to 10 mg/kg
- ED50 (Amphetamine Stereotypy; [3]): > 10 mg/kg

SMILES: OC(CCCN1CCc2c(c3cc(F)ccc3n2-c2ccc(F)cc2)C1)c1ccc(F)cc1 (stereo not shown) [drawing 41 (a), 8-Fluoro-5-(p-fluorophenyl)-2-[4-(p-fluorophenyl)-4-hydroxybutyl]-1,2,3,4-tetrahydro-γ-carboline hydrochloride, reference compound]
- ED50 (Amphetamine Stereotypy; [1]): 0.1 to 0.32 mg/kg
- ED50 (Amphetamine Stereotypy; [2]): 0.1 to 3.2 mg/kg
- ED50 (Amphetamine Stereotypy; [3]): 1 to 3.2 mg/kg
- ED50 (Amphetamine Stereotypy; [4]): 1 to 3.2 mg/kg
- ED50 (Amphetamine Stereotypy; [5]): 0.32 to 1 mg/kg
- ED50 (Amphetamine Stereotypy; [6]): 1 to 3.2 mg/kg

SMILES: O=C(CCCN1CCc2c(c3cc(F)ccc3n2-c2ccc(F)cc2)C1)c1ccc(F)cc1 [drawing 42 (a), reference compound]
- ED50 (Amphetamine Stereotypy; [1]): 3.2 to 10 mg/kg
- ED50 (Amphetamine Stereotypy; [2]): > 10 mg/kg

SMILES: OC(CCCN1CCc2c(c3cc(F)ccc3n2-c2ccccc2F)C1)c1ccc(F)cc1 (stereo not shown) [drawing 43 (a), reference compound]
- ED50 (Amphetamine Stereotypy; [1]): 0.32 to 1 mg/kg
- ED50 (Amphetamine Stereotypy; [2]): 1 to 3.2 mg/kg
- ED50 (Amphetamine Stereotypy; [3]): > 10 mg/kg
